Converted amounts (≈) assume the structure as drawn.
Experiments:
Format in all cases: cell-based
S. aureus = experiment: MIC values, S. aureus (Tables 1-4)
S. pneumo. = experiment: MIC values, S. pneumo. (Tables 1-4)
E. coli = experiment: MIC values, E. coli (Tables 1-4)
E. faecalis = experiment: MIC values, E. faecalis (Tables 1-4)
H. flu = test system: H. flu

SMILES	MIC S. aureus (S. aureus) [µg/mL]	MIC S. pneumo. (S. pneumo.) [ng/mL]	MIC E. coli (E. coli) [µg/mL]	MIC E. faecalis (E. faecalis) [µg/mL]	MIC H. flu (H. flu) [µg/mL]
COC1C=COC2(C)Oc3c(C)c(O)c4c(=O)c(c5oc6cc(N7CC8C(N)C8C7)cc(O)c6nc-5c4c3C2=O)NC(=O)C(C)=CC=CC(C)C(O)C(C)C(O)C(C)C(O)C1C (centres unmarked) [Compound 20]	2 (≈ 2.34 µM)	1000 (≈ 1.17 µM)	>8	>8	>8
CCOC(=O)NC1C2CN(c3cc(O)c4nc5c6c7c8c(C)c(O)c6c(=O)c(c-5oc4c3)NC(=O)C(C)=CC=CC(C)C(O)C(C)C(O)C(C)C(OC(C)=O)C(C)C(OC)C=COC(C)(O8)C7=O)CC21 (centres unmarked) [Compound 21]	0.004 (≈ 0.00413 µM)	1 (≈ 0.00103 µM)	4 (≈ 4.13 µM)	0.12 (≈ 0.124 µM)	0.5 (≈ 0.516 µM)
CO[C@H]1/C=C/O[C@@]2(C)Oc3c(C)c(O)c4c(=O)c(c5oc6cc(N7CCC(NC(=O)OC(C)C)CC7)cc(O)c6nc-5c4c3C2=O)NC(=O)/C(C)=C\C=C\[C@H](C)[C@H](O)[C@@H](C)[C@@H](O)[C@@H](C)[C@H](OC(C)=O)[C@@H]1C [Compound 22]	0.015 (≈ 0.0152 µM)	0.25 (≈ 0.000254 µM)	>8	4 (≈ 4.06 µM)	2 (≈ 2.03 µM)
CO[C@H]1/C=C/O[C@@]2(C)Oc3c(C)c(O)c4c(=O)c(c5oc6cc(N7CCC(NS(=O)(=O)C(F)(F)F)CC7)cc(O)c6nc-5c4c3C2=O)NC(=O)/C(C)=C\C=C\[C@H](C)[C@H](O)[C@@H](C)[C@@H](O)[C@@H](C)[C@H](OC(C)=O)[C@@H]1C [Compound 23]	0.015 (≈ 0.0145 µM)	0.12 (≈ 0.000116 µM)	>8	4 (≈ 3.88 µM)	2 (≈ 1.94 µM)
CCCC(=O)NC1CCN(c2cc(O)c3nc4c5c6c7c(C)c(O)c5c(=O)c(c-4oc3c2)NC(=O)/C(C)=C\C=C\[C@H](C)[C@H](O)[C@@H](C)[C@@H](O)[C@@H](C)[C@H](OC(C)=O)[C@H](C)[C@@H](OC)/C=C/O[C@@](C)(O7)C6=O)CC1 [Compound 24]	0.015 (≈ 0.0155 µM)	1 (≈ 0.00103 µM)	>8	2 (≈ 2.06 µM)	2 (≈ 2.06 µM)
CO[C@H]1/C=C/O[C@@]2(C)Oc3c(C)c(O)c4c(=O)c(c5oc6cc(N7CCC(NS(C)(=O)=O)CC7)cc(O)c6nc-5c4c3C2=O)NC(=O)/C(C)=C\C=C\[C@H](C)[C@H](O)[C@@H](C)[C@@H](O)[C@@H](C)[C@H](OC(C)=O)[C@@H]1C [Compound 25]	0.008 (≈ 0.00819 µM)	1 (≈ 0.00102 µM)	>8	2 (≈ 2.05 µM)	2 (≈ 2.05 µM)
CCCNC(=O)NC1CCN(c2cc(O)c3nc4c5c6c7c(C)c(O)c5c(=O)c(c-4oc3c2)NC(=O)/C(C)=C\C=C\[C@H](C)[C@H](O)[C@@H](C)[C@@H](O)[C@@H](C)[C@H](O)[C@H](C)[C@@H](OC)/C=C/O[C@@](C)(O7)C6=O)CC1 [Compound 26]	0.008 (≈ 0.00849 µM)	0.12 (≈ 0.000127 µM)	>8	2 (≈ 2.12 µM)	1 (≈ 1.06 µM)
CO[C@H]1/C=C/O[C@@]2(C)Oc3c(C)c(O)c4c(=O)c(c5oc6cc(N7CCC(NS(C)(=O)=O)CC7)cc(O)c6nc-5c4c3C2=O)NC(=O)/C(C)=C\C=C\[C@H](C)[C@H](O)[C@@H](C)[C@@H](O)[C@@H](C)[C@H](O)[C@@H]1C [Compound 27]	0.015 (≈ 0.016 µM)	1 (≈ 0.00107 µM)	>8	1 (≈ 1.07 µM)	0.12 (≈ 0.128 µM)
CCCNC(=O)NC1CCN(c2cc(O)c3nc4c5c6c7c(C)c(O)c5c(=O)c(c-4oc3c2)NC(=O)/C(C)=C\C=C\[C@H](C)[C@H](O)[C@@H](C)[C@@H](O)[C@@H](C)[C@H](OC(C)=O)[C@H](C)[C@@H](OC)/C=C/O[C@@](C)(O7)C6=O)CC1 [Compound 28]	0.03 (≈ 0.0305 µM)	2 (≈ 0.00203 µM)	>8	1 (≈ 1.02 µM)	0.25 (≈ 0.254 µM)
CO[C@H]1/C=C/O[C@@]2(C)Oc3c(C)c(O)c4c(=O)c(c5oc6cc(N7CCC(NC(=O)OC(C)C)CC7)cc(O)c6nc-5c4c3C2=O)NC(=O)/C(C)=C\C=C\[C@H](C)[C@H](O)[C@@H](C)[C@@H](O)[C@@H](C)[C@H](O)[C@@H]1C [Compound 29]	0.008 (≈ 0.00848 µM)	0.12 (≈ 0.000127 µM)	>8	2 (≈ 2.12 µM)	1 (≈ 1.06 µM)
COC(=O)NC1CCN(c2cc(O)c3nc4c5c6c7c(C)c(O)c5c(=O)c(c-4oc3c2)NC(=O)/C(C)=C\C=C\[C@H](C)[C@H](O)[C@@H](C)[C@@H](O)[C@@H](C)[C@H](O)[C@H](C)[C@@H](OC)/C=C/O[C@@](C)(O7)C6=O)CC1 [Compound 30]	0.015 (≈ 0.0164 µM)	2 (≈ 0.00219 µM)	>8	1 (≈ 1.09 µM)	0.5 (≈ 0.546 µM)
CCOC(=O)NC1CCN(c2ccc3nc4c5c6c7c(C)c(O)c5c(=O)c(c-4n(C)c3c2)NC(=O)/C(C)=C\C=C\[C@H](C)[C@H](O)[C@@H](C)[C@@H](O)[C@@H](C)[C@H](O)[C@H](C)[C@@H](OC)/C=C/O[C@@](C)(O7)C6=O)CC1 [Compound 31]	0.03 (≈ 0.0324 µM)	0.5 (≈ 0.00054 µM)	8 (≈ 8.64 µM)	0.25 (≈ 0.27 µM)	0.25 (≈ 0.27 µM)
COC(=O)NC1CCN(c2cc(O)c3nc4c5c6c7c(C)c(O)c5c(=O)c(c-4oc3c2)NC(=O)/C(C)=C\C=C\[C@H](C)[C@H](O)[C@@H](C)[C@@H](O)[C@@H](C)[C@H](OC(C)=O)[C@H](C)[C@@H](OC)/C=C/O[C@@](C)(O7)C6=O)CC1 [Compound 32]	2 (≈ 2.09 µM)	4000 (≈ 4.18 µM)	>8	>8	>8
CO[C@H]1/C=C/O[C@@]2(C)Oc3c(C)c(O)c4c(=O)c(c5oc6cc(N7CCC(N)CC7)cc(O)c6nc-5c4c3C2=O)NC(=O)/C(C)=C\C=C\[C@H](C)[C@H](O)[C@@H](C)[C@@H](O)[C@@H](C)[C@H](OC(C)=O)[C@@H]1C [Compound 33]	0.008 (≈ 0.0089 µM)	0.06 (≈ 6.67e-05 µM)	>8	1 (≈ 1.11 µM)	1 (≈ 1.11 µM)
CCNC(=O)NC1CCN(c2cc(O)c3nc4c5c6c7c(C)c(O)c5c(=O)c(c-4oc3c2)NC(=O)/C(C)=C\C=C\[C@H](C)[C@H](O)[C@@H](C)[C@@H](O)[C@@H](C)[C@H](OC(C)=O)[C@H](C)[C@@H](OC)/C=C/O[C@@](C)(O7)C6=O)CC1 [Compound 34]	0.03 (≈ 0.0309 µM)	1 (≈ 0.00103 µM)	8 (≈ 8.25 µM)	2 (≈ 2.06 µM)	0.5 (≈ 0.515 µM)
CCCS(=O)(=O)NC1CCN(c2cc(O)c3nc4c5c6c7c(C)c(O)c5c(=O)c(c-4oc3c2)NC(=O)/C(C)=C\C=C\[C@H](C)[C@H](O)[C@@H](C)[C@@H](O)[C@@H](C)[C@H](OC(C)=O)[C@H](C)[C@@H](OC)/C=C/O[C@@](C)(O7)C6=O)CC1 [Compound 35]	0.015 (≈ 0.0149 µM)	0.25 (≈ 0.000249 µM)	8 (≈ 7.96 µM)	4 (≈ 3.98 µM)	0.5 (≈ 0.497 µM)
